# Measured values taken from the supplement of paper PMC10307832.
# Compound: CN1CCN(CC1)C2=CC(=C(C=C2)NC3=NC(=C(S3)C(=O)C4=C(C=CC=C4Cl)Cl)N)OC [XMD14-99] + CS(=O)(=O)CCNCc1ccc(-c2ccc3ncnc(Nc4ccc(OCc5cccc(F)c5)c(Cl)c4)c3c2)o1 [Lapatinib] (partner 2 µM)
# Assay: relative viability (nuclei count vs DMSO), 5 days (fraction); higher = more cells survive
# Details: first compound 0.08 µM
# Method in brief: (§1)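 Nuclei were stained with Hoechst during a one-step fixation (final 0.05% Triton X-100, 1% formaldehyde, 1 ug/ml Hoechst) carried out 5 days after dosing, then counted on 4× images. The cells, lung cancer lines in 1536-well plates, had been dosed by pin tool the day after seeding with one drug alone or a fixed anchor-drug dose plus five library-drug doses (not always all listed) in √10 steps. Relative viability is the nuclei count in treated wells divided by that in vehicle wells, and each value is the median of duplicate plates.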
row,Cell Line,relative viability
1,NCI-H838,0.947
2,NCI-H1650,0.702
3,EBC-1,0.252
4,NCI-H1703,0.9
5,NCI-H2009,1.03
6,NCI-H1993,0.881
7,PC-14,0.328
8,NCI-H596,1.12
9,NCI-H2228,0.952
10,EMC-BAC-2,0.87
11,NCI-H2087,1.07
12,Calu-6,0.996
13,HCC-366,1.06
14,NCI-H1666,0.741
15,NCI-H647,1.11
16,LK-2,0.801
17,NCI-H2126,0.77
18,SK-MES-1,0.416
19,H3255,0.234
20,COR-L23,0.906
21,COR-L 105,0.404
22,IA-LM,0.821
23,LOU-NH91,0.706
24,NCI-H2170,0.263
25,NCI-H3122,0.982
26,HOP-62,1.22
27,A549,0.857
28,NCI-H1395,0.985
29,NCI-H1299,0.924
30,NCI-H1793,0.646

# Same assay, conditions: first compound 0.8 µM
row,Cell Line,relative viability
1,NCI-H838,0.993
2,NCI-H1650,1.03
3,EBC-1,0.207
4,NCI-H1703,0.976
5,NCI-H2009,0.997
6,NCI-H1993,0.767
7,PC-14,0.303
8,NCI-H596,1.05
9,NCI-H2228,0.9
10,EMC-BAC-2,0.905
11,NCI-H2087,1.08
12,Calu-6,0.934
13,HCC-366,1.06
14,NCI-H1666,0.582
15,NCI-H647,1.03
16,LK-2,1.01
17,NCI-H2126,0.756
18,SK-MES-1,0.46
19,H3255,0.252
20,COR-L23,0.924
21,COR-L 105,0.293
22,IA-LM,0.603
23,LOU-NH91,0.841
24,NCI-H2170,0.27
25,NCI-H3122,0.965
26,HOP-62,1.06
27,A549,0.923
28,NCI-H1395,0.958
29,NCI-H1299,0.925
30,NCI-H1793,0.729

# Same assay, conditions: first compound 2.53 µM
row,Cell Line,relative viability
1,NCI-H838,0.851
2,NCI-H1650,0.725
3,EBC-1,0.2
4,NCI-H1703,0.972
5,NCI-H2009,0.834
6,NCI-H1993,0.749
7,PC-14,0.262
8,NCI-H596,1.17
9,NCI-H2228,0.811
10,EMC-BAC-2,0.859
11,NCI-H2087,0.842
12,Calu-6,0.936
13,HCC-366,1.13
14,NCI-H1666,0.721
15,NCI-H647,1.13
16,LK-2,0.823
17,NCI-H2126,0.765
18,SK-MES-1,0.432
19,H3255,0.326
20,COR-L23,0.931
21,COR-L 105,0.354
22,IA-LM,0.511
23,LOU-NH91,0.76
24,NCI-H2170,0.245
25,NCI-H3122,0.879
26,HOP-62,0.946
27,A549,0.983
28,NCI-H1395,1.04
29,NCI-H1299,0.925
30,NCI-H1793,0.647

# Same assay, conditions: first compound 8 µM
row,Cell Line,relative viability
1,NCI-H838,0.69
2,NCI-H1650,0.619
3,EBC-1,0.173
4,NCI-H1703,0.793
5,NCI-H2009,0.666
6,NCI-H1993,0.745
7,PC-14,0.216
8,NCI-H596,0.938
9,NCI-H2228,0.291
10,EMC-BAC-2,0.724
11,NCI-H2087,0.702
12,Calu-6,0.735
13,HCC-366,0.854
14,NCI-H1666,0.399
15,NCI-H647,0.842
16,LK-2,0.949
17,NCI-H2126,0.701
18,SK-MES-1,0.403
19,H3255,0.164
20,COR-L23,0.517
21,COR-L 105,0.32
22,IA-LM,0.301
23,LOU-NH91,0.64
24,NCI-H2170,0.259
25,NCI-H3122,0.746
26,HOP-62,0.819
27,A549,0.685
28,NCI-H1395,0.809
29,NCI-H1299,0.813
30,NCI-H1793,0.633

# Compound: CN1CCN(CC1)C2=CC(=C(C=C2)NC3=NC(=C(S3)C(=O)C4=C(C=CC=C4Cl)Cl)N)OC [XMD14-99] + C[C@@H](Oc1cc(-c2cnn(C3CCNCC3)c2)cnc1N)c1c(Cl)ccc(F)c1Cl [Crizotinib] (partner 1 µM)
# Assay: as above
# Details: first compound 0.08 µM
# Method in brief: as §1
row,Cell Line,relative viability
1,NCI-H838,0.877
2,NCI-H1650,1
3,EBC-1,0.232
4,NCI-H1703,0.611
5,NCI-H2009,1
6,NCI-H1993,0.952
7,PC-14,0.824
8,LCLC-103H,0.986
9,NCI-H596,1.01
10,NCI-H2228,0.37
11,EMC-BAC-2,0.801
12,NCI-H2087,0.773
13,Calu-6,0.807
14,HCC-366,0.494
15,NCI-H1666,0.926
16,NCI-H647,0.948

row,Cell Line,relative viability
1,LK-2,0.232
2,NCI-H2126,1.01
3,SK-MES-1,0.991
4,H3255,0.831
5,COR-L23,0.684
6,COR-L 105,0.709
7,IA-LM,0.742
8,LOU-NH91,0.789
9,ChaGo-K-1,1.1
10,NCI-H2170,1.14
11,NCI-H3122,0.267
12,HOP-62,1.06
13,A549,0.593
14,NCI-H441,0.596
15,NCI-H1299,0.946

# Same assay, conditions: first compound 0.8 µM
row,Cell Line,relative viability
1,NCI-H838,0.798
2,NCI-H1650,0.951
3,EBC-1,0.19
4,NCI-H1703,0.52
5,NCI-H2009,0.939
6,NCI-H1993,0.847
7,PC-14,0.796
8,LCLC-103H,1.02
9,NCI-H596,0.974
10,NCI-H2228,0.447
11,EMC-BAC-2,0.775
12,NCI-H2087,0.896
13,Calu-6,0.756
14,HCC-366,0.503
15,NCI-H1666,0.899
16,NCI-H647,0.928

row,Cell Line,relative viability
1,LK-2,0.193
2,NCI-H2126,1.02
3,SK-MES-1,0.946
4,H3255,0.64
5,COR-L23,0.614
6,COR-L 105,0.88
7,IA-LM,0.561
8,LOU-NH91,0.743
9,ChaGo-K-1,1.14
10,NCI-H2170,1.21
11,NCI-H3122,0.229
12,HOP-62,0.942
13,A549,0.728
14,NCI-H441,0.797
15,NCI-H1299,0.898

# Same assay, conditions: first compound 2.53 µM
row,Cell Line,relative viability
1,NCI-H838,0.82
2,NCI-H1650,1.09
3,EBC-1,0.188
4,NCI-H1703,0.58
5,NCI-H2009,0.997
6,NCI-H1993,0.792
7,PC-14,0.866
8,LCLC-103H,1.01
9,NCI-H596,1.04
10,NCI-H2228,0.48
11,EMC-BAC-2,0.743
12,NCI-H2087,0.632
13,Calu-6,0.747
14,HCC-366,0.478
15,NCI-H1666,0.779
16,NCI-H647,1.01

row,Cell Line,relative viability
1,LK-2,0.2
2,NCI-H2126,0.979
3,SK-MES-1,1.01
4,H3255,0.757
5,COR-L23,0.51
6,COR-L 105,0.721
7,IA-LM,0.435
8,LOU-NH91,0.717
9,ChaGo-K-1,1.19
10,NCI-H2170,1.26
11,NCI-H3122,0.262
12,HOP-62,0.883
13,A549,0.705
14,NCI-H441,0.661
15,NCI-H1299,0.998

# Same assay, conditions: first compound 8 µM
row,Cell Line,relative viability
1,NCI-H838,0.557
2,NCI-H1650,0.849
3,EBC-1,0.156
4,NCI-H1703,0.587
5,NCI-H2009,0.767
6,NCI-H1993,0.68
7,PC-14,0.714
8,LCLC-103H,0.989
9,NCI-H596,1.02
10,NCI-H2228,0.301
11,EMC-BAC-2,0.62
12,NCI-H2087,0.463
13,Calu-6,0.513
14,HCC-366,0.497
15,NCI-H1666,0.575
16,NCI-H647,0.741

row,Cell Line,relative viability
1,LK-2,0.223
2,NCI-H2126,0.937
3,SK-MES-1,0.639
4,H3255,0.597
5,COR-L23,0.33
6,COR-L 105,0.444
7,IA-LM,0.331
8,LOU-NH91,0.698
9,ChaGo-K-1,0.92
10,NCI-H2170,0.937
11,NCI-H3122,0.251
12,HOP-62,0.663
13,A549,0.452
14,NCI-H441,0.494
15,NCI-H1299,0.769

# Compound: CN1CCN(CC1)C2=CC(=C(C=C2)NC3=NC(=C(S3)C(=O)C4=C(C=CC=C4Cl)Cl)N)OC [XMD14-99] + C[C@]1(O)C[C@@H](c2nc(-c3ccc4ccc(-c5ccccc5)nc4c3)c3c(N)nccn32)C1 [Linsitinib] (partner 1 µM)
# Assay: as above
# Details: first compound 0.08 µM
# Method in brief: as §1
row,Cell Line,relative viability
1,NCI-H838,0.948
2,EBC-1,0.885
3,NCI-H1703,0.843
4,NCI-H2009,1.2
5,NCI-H1993,0.684
6,PC-14,1.08
7,LCLC-103H,0.909
8,NCI-H596,1.06
9,NCI-H2228,0.702
10,EMC-BAC-2,0.804
11,NCI-H2087,0.894
12,Calu-6,0.918
13,HCC-366,0.619
14,NCI-H1666,0.809
15,NCI-H647,1.25
16,LK-2,0.398
17,NCI-H2126,0.739
